This note sets out measurements from publication PMC12293604, “Anticancer Effect of Nature-Inspired Indolizine-Based Pentathiepines in 2D and 3D Cellular Model” (Cancers, 2025).

Series [1] concerns HCT116. Description: Cell cycle distribution, flow cytometry, HCT116. The format is cell-based, human. Particulars: HCT116, 48 h at equitoxic (IC50) concentrations. The method, then: (§1) The potential of the tested PTE derivatives to induce apoptotic and/or necrotic cell death, as well as to cause alterations in cell cycle distribution, was evaluated following a 48 h exposure to their respective IC50 concentrations, using flow cytometric analysis as previously described. Briefly, the indicated cell lines were seeded in 12-well plates (3 × 10^5 cells/well) and treated 24 h post-seeding. At the end of the treatment period, following harvesting, cells were washed with PBS and fixed in ice-cold 70% ethanol at −20 °C for a minimum duration of 45 min, to assess apoptotic cell death and perform cell cycle analysis. After fixation, cells were washed again with PBS and stained with a propidium iodide (PI)/RNase solution (50 µg/mL PI and 30 U/mL RNase) in PBS for 15 min at room temperature.
(§2) Flow cytometric analysis was performed using a FACScalibur flow cytometer (Becton Dickinson, Milan, Italy), equipped with a 15 mW, 488 nm air-cooled argon ion laser. Data were acquired and analyzed with CellQuestPRO version 5.1 software. PI fluorescence was detected using a 575 nm band-pass filter. The percentage of apoptotic cells was determined by identifying sub-G1 peaks in monoparametric histograms obtained in logarithmic mode. For cell cycle distribution, PI fluorescence was also analyzed with monoparametric histograms, but data were collected in linear mode.
Background: Flow cytometry measures light scatter and fluorescence of single cells or particles in a stream.

Series [2] deals with HCT116. Nature of the series: MTT cell viability assay, HCT116. The format is cell-based. The note with it: Homo sapiens, HCT-116, HCT116, 48h treatment, mean ± S.D. As for the experimental part:
(§3) The human cancer cell lines MCF7 (HTB-22, breast adenocarcinoma), MDA-MB-231 (HTB-26, breast adenocarcinoma), HCT116 (CCL-247, colorectal carcinoma), and A549 (CRM-CCL-185, lung carcinoma) were obtained from the American Type Culture Collection (ATCC, Manassas, VA, USA). The fibroblast cell line CR9, kindly provided by Dr. Guven, was maintained in ISCOVE medium. HCT116 cells were cultured in Dulbecco’s Modified Eagle Medium (DMEM), whereas A549, MCF7, and MDA-MB-231 cells were maintained in Roswell Park Memorial Institute 1640 (RPMI-1640) medium. All media were supplemented with 10% fetal bovine serum (FBS), 1% L-glutamine, and 0.5% antibiotic mixture (penicillin, streptomycin, and neomycin). Cell cultures were maintained at 37 °C in a humidified atmosphere with 5% CO2, following standard culture protocols. Additionally, for HCT116 cells, the culture medium was further supplemented with 1% sodium pyruvate and 1% non-essential amino acids.
(§4) To evaluate the impact of the tested PTEs on cell viability, a colorimetric MTT assay was performed as previously described. Briefly, cells were seeded in 96-well microplates at initial densities of 5 × 10^3 cells per well for the MCF7, MDA-MB231, and A549 cell lines, and 4 × 10^3 cells per well for HCT116 cells. After an initial 24 h incubation period to allow for cell attachment and growth, the cultures were treated with different concentrations of PTEs (0.25–20 µM). Following 48 h of treatment, 50 μL of MTT solution (2 mg/mL in PBS) was added to each well, and the plates were incubated at 37 °C for 3 h to allow for MTT reduction by metabolically active cells. The resulting formazan crystals were solubilized, and cell viability was measured by recording the absorbance at 570 nm using an iMark Microplate Reader (BIORAD, Segrate, Milan, Italy). The cytotoxic effectiveness of the compounds was expressed as IC50 values, which were calculated from dose–response curves fitted with non-linear regression analysis using Calcusyn version 1.1.4. software (Biosoft, Cambridge, UK).

Series [3] has as its system MCF7, MDA-MB231, A549 and HCT116 cell lines. Nature of the series: Hydrosulfide production (DNS-N3 probe), summary across cell lines. The format is cell-based, human. Particulars: 48 h at IC50 concentration, all cell lines. The method, then:
PTEs-induced sulfide production was evaluated using dansyl azide (DNS-N3) as a probe. DNS-N3 is non-fluorescent itself, while in the presence of hydrosulfide, the azide transforms into the dansyl amide and fluorescence is switched on. After 48 h of treatment, cells were harvested, washed with PBS, and incubated in a PBS solution containing 200 μM DNS-N3. Following 30 min incubation at 37 °C, fluorescence increase was measured through a 575 nm band-pass filter. The levels of hydrosulfide production were assessed and reported in arbitrary units, calculated from the median fluorescence intensity (MFI) measurements. For all flow cytometric analyses, untreated cells (i.e., not exposed to PTE compounds) were used as negative controls.

Series [4] relates to MCF7, MDA-MB231, A549 and HCT116 cells. Nature of the series: Intracellular ROS levels (DCFH-DA), summary across cell lines. Particulars: 48 h at IC50 concentration, four cell lines. The format is cell-based, human. The method, then: (§5) Intracellular ROS levels were quantified using 2′,7′-dichlorodihydrofluorescein diacetate (DCFH-DA) as a fluorescent probe. After 48 h of treatment, cells were collected, rinsed with PBS, and incubated in a PBS solution containing 10 µM DCFH-DA. Following incubation, fluorescence corresponding to oxidized fluorescein was measured using a 530 nm band-pass filter. ROS production was expressed in arbitrary units based on the median fluorescence intensity (MFI).

The subject of series [5] is HCT116. Description: Necrotic cell death, flow cytometry (PI without fixation), HCT116. The format is cell-based, human. The note with it: HCT116, 48 h treatment at IC50 concentration. As for the experimental part:
as §1, §2
Necrotic cell death was assessed by omitting the ethanol fixation step from the staining protocol, thereby enabling propidium iodide (PI) to penetrate membrane-compromised cells, indicative of necrosis.

In series [6] the test system is A549. Description: MTT cell viability assay, A549. The format is cell-based. The note with it: Homo sapiens, A549, 48h treatment, mean ± S.D. As for the experimental part: as §3, §4
Series [7] concerns MCF7, MDA-MB231, A549 and HCT116 cells. Nature of the series: Apoptotic cell death, flow cytometry (sub-G1, PI). The format is cell-based, human. The note with it: 48 h treatment at IC50 concentration, vs. untreated controls. As for the experimental part:
as §1, §2

Series [8] relates to MDA-MB231. Description: MTT cell viability assay, MDA-MB231. Particulars: Homo sapiens, MDA-MB-231, MDA-MB231, 48h treatment, mean ± S.D. The format is cell-based. The method, then:
as §3, §4
In general terms: Tetrazolium assays rely on reduction of a dye to a coloured formazan, in cell work by metabolically active cells.

In series [9] the test system is MCF7, MDA-MB-231, A549, and HCT116 cells. Description: MTT cell viability assay, summary across the cell line panel. The format is cell-based, human. Particulars: 48 h treatment, across tested cell lines. The method, then: The fibroblast cell line CR9, kindly provided by Dr. Guven, was maintained in ISCOVE medium. […] All media were supplemented with 10% fetal bovine serum (FBS), 1% L-glutamine, and 0.5% antibiotic mixture (penicillin, streptomycin, and neomycin). Cell cultures were maintained at 37 °C in a humidified atmosphere with 5% CO2, following standard culture protocols. Additionally, for HCT116 cells, the culture medium was further supplemented with 1% sodium pyruvate and 1% non-essential amino acids.
as §4, with “Following 48 h of treatment, 50 μL of MTT solution (2 mg/mL in PBS) was added to each well, and the plates were incubated at 37 °C for 3 h to allow for MTT reduction by metabolically active cells.” left out

Series [10] concerns MCF7. Description: MTT cell viability assay, MCF7. The format is cell-based. Particulars: Homo sapiens, MCF7, 48h treatment, mean ± S.D. As for the experimental part:
as §3, §4

Series [11] deals with MDA-MB231. Description: Cell cycle distribution, flow cytometry, MDA-MB231. The format is cell-based, human. The note with it: MDA-MB231, 48 h at equitoxic (IC50) concentrations. As for the experimental part:
as §1, §2

Series [12] concerns MDA-MB231. Description: Intracellular ROS levels (DCFH-DA), MDA-MB231. The format is cell-based, human. The note with it: MDA-MB231, 48 h at IC50 concentration, vs. CTR. The method, then: as §5
Series [13] has as its system CR9 human fibroblast cells. Description: MTT cell viability assay, CR9 fibroblasts. The format is cell-based. The note with it: 48h treatment, mean ± S.D. As for the experimental part:
as §3, §4

Series [14] concerns MCF7. Nature of the series: Intracellular ROS levels (DCFH-DA), MCF7. The format is cell-based, human. The note with it: MCF7, 48 h at IC50 concentration, vs. CTR. The method, then: as §5
Series [15] has as its system HCT116. Description: Intracellular ROS levels (DCFH-DA), HCT116. The format is cell-based, human. The note with it: HCT116, 48 h at IC50 concentration, vs. CTR. The method, then: as §5
Series [16] deals with MCF7. Nature of the series: Cell cycle distribution, flow cytometry, MCF7. The format is cell-based, human. The note with it: MCF7, 48 h at equitoxic (IC50) concentrations. As for the experimental part: as §1, §2
Series [17] concerns A549. Description: Cell cycle distribution, flow cytometry, A549. The format is cell-based, human. Particulars: A549, 48 h at equitoxic (IC50) concentrations. The method, then:
as §1, §2

One may read the IC50 as the midpoint of a concentration-inhibition curve. The low end stands for greater potency in that assay, the high end for weaker potency in that assay. Consider `OCCOc1c2c(c3ccccn13)SSSSS2` [2^Gly], for which the “cell cycle shift: decrease in the G0/G1 phase population with G2/M phase accumulation” value (from here on “cell cycle shift: decrease”) in the series with HCT116 [1] and with MDA-MB231 [11] was “triggered similar effects” each time. The IC50 came out at 603 ± 40 nM in the series on HCT116 [2]; 790 ± 60 nM in the series on A549 [6]; 300 ± 30 nM in the series with MDA-MB231 [8]; 1130 ± 20 nM with MCF7 [10]; 1610 ± 130 nM in [13]. In [3], the “sulfide production (in words)” value is given as “most potent inducers of sulfide production”. Besides, the “ROS production (ranking in words)” value in series [4] was “better ROS producers”. Besides, the “necrosis relative to apoptosis” value in the series on HCT116 [5] is “higher levels of necrosis relative to apoptosis”. The apoptotic cell death result in series [7] is on record as “most potent inducers of apoptosis”. Further, the “cytotoxic potency (in words)” value in series [9] is reported as “highest cytotoxic potency”. The “increase in ROS production” value in the series with MDA-MB231 [12] is on record as “statistically significant”.
As for `CCOc1c2c(c3ccc(C=O)cn13)SSSSS2` [3^CHO, 6-ethoxy-9-formyl-[1,2,3,4,5]pentathiepino [6,7-a]indolizine], the IC50 was 740 ± 60 nM with HCT116 [2]; 1030 ± 40 nM in the series with A549 [6]; 390 ± 40 nM in the series on MDA-MB231 [8]; 1700 ± 30 nM with MCF7 [10]; 1900 ± 120 nM in [13]. Also, in series [3], the “sulfide production (in words)” value is “most potent inducers of sulfide production”. Also, in series [4], the “ROS production (ranking in words)” value is reported as “better ROS producers”. In addition, the “necrosis relative to apoptosis” value in the series on HCT116 [5] is “higher levels of necrosis relative to apoptosis”. Also, the apoptotic cell death result in series [7] is recorded as “most potent inducers of apoptosis”. Besides, the “cytotoxic potency (in words)” value in [9] is reported as “highest cytotoxic potency”. Moreover, in the series on MDA-MB231 [11], the “cell cycle shift: decrease” value is recorded as “exerted this effect exclusively in MDA-MB231 cells”. Moreover, the “increase in ROS production” value in the series on MDA-MB231 [12] and with MCF7 [14] was “statistically significant” each time.
Turning to `CCOc1c2c(c3ccc([N+](=O)[O-])cn13)SSSSS2` [3^NO2], the IC50 in the series with HCT116 [2] was 1590 ± 150 nM; in the series on A549 [6], 3220 ± 390 nM; in the series with MDA-MB231 [8], 630 ± 750 nM; in the series with MCF7 [10], 3210 ± 130 nM; in [13], 2870 ± 140 nM. For the same molecule, the apoptotic cell death result in series [7] is “most potent inducers of apoptosis”. Also, the “cytotoxic potency (in words)” value in series [9] was “noteworthy efficacy”. Also, the “increase in ROS production” value with MDA-MB231 [12] and with MCF7 [14] was “statistically significant” in each case.
As for `CCOc1c2c(c3ccccn13)SSSSS2` [compound 1], the “cell cycle shift: decrease” value in the series on HCT116 [1], in the series with MCF7 [16], in the series with MDA-MB231 [11] and with A549 [17] was “induced this characteristic cell cycle shift” in each case. In addition, the “increase in ROS production” value in the series on HCT116 [15], in the series with MDA-MB231 [12] and with MCF7 [14] was “statistically significant” in each case. Besides, the IC50 in the series on HCT116 [2] came out at 830 ± 40 nM; in the series on A549 [6], 1540 ± 80 nM; in the series with MDA-MB231 [8], 630 ± 40 nM; with MCF7 [10], 2680 ± 310 nM; in series [13], 7320 ± 150 nM. For the same molecule, the “sulfide production (in words)” value in series [3] was “most potent inducers of sulfide production”. Further, in series [4], the “ROS production (ranking in words)” value was “better ROS producers”. Moreover, in series [7], the apoptotic cell death entry is “most potent inducers of apoptosis”. Moreover, in series [9], the “cytotoxic potency (in words)” value is on record as “noteworthy efficacy”.
Regarding `COc1cccc2c1C(=O)c1c(O)c3c(c(O)c1C2=O)C[C@@](O)(C(=O)CO)C[C@@H]3O[C@H]1C[C@H](N)[C@H](O)[C@H](C)O1` [doxo, doxorubicin, reference compound], the IC50 worked out at 3500 ± 600 nM in the series with HCT116 [2], 1500 ± 210 nM in the series on A549 [6], 17800 ± 1960 nM in the series with MDA-MB231 [8] and 4500 ± 510 nM in the series on MCF7 [10].
